The values that follow come from ChEMBL document CHEMBL1130169, “Validation of EGSITE2, a mixed integer program for deducing objective site models for experimental binding data” (J Med Chem, 1997).

The target in the experiment is T1, Sex hormone-binding globulin (Homo sapiens) (UniProt P04278).
T1 sequence (whole entry): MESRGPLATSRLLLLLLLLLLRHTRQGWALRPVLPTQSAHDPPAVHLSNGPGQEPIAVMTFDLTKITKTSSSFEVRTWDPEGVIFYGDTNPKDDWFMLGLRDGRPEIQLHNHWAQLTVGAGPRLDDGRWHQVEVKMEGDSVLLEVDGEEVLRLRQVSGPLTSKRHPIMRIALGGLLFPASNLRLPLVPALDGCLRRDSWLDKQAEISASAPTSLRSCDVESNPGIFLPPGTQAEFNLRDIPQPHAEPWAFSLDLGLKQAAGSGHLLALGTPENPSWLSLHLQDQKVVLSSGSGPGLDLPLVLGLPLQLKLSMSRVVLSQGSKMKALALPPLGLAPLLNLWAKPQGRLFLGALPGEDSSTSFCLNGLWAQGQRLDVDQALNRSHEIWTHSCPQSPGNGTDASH
Description: Binding affinity towards human testosterone binding globulin.

Turning to `C[C@]12CCC(=O)C=C1CC[C@@H]1[C@@H]2[C@@H](O)C[C@@]2(C)[C@H]1CC[C@]2(O)C(=O)CO`, the -Log Kdiss is 5.2. With `C[C@]12CCC3C(CC[C@@H]4CC(O)=CC[C@]34C)C1CCC2=O` (some centres undefined) the figure was 5.15. With `C[C@]12CCC(=O)C=C1CC[C@@H]1[C@@H]2CC[C@]2(C)C(=O)CC[C@@H]12` the figure was 6.46; with `C[C@]12CC[C@H]3[C@@H](CCC4=CC(=O)CC[C@@]43C)[C@@H]1CC[C@@H]2O`, 8.2; with `C[C@]12CC[C@@H]3c4ccc(O)cc4CC[C@H]3[C@@H]1C[C@@H](O)[C@@H]2O`, 5.63. Turning to `C[C@]12CCC(=O)C=C1CCC1C3CC[C@H](C(=O)CO)[C@@]34C[C@H](OC4O)C12` (some centres undefined), the -Log Kdiss turned out to be 4.32.

On to `C[C@]12CCC(=O)C=C1CC[C@@H]1[C@@H]2C(=O)C[C@@]2(C)[C@H]1CC[C@]2(O)C(=O)CO`, for which the -Log Kdiss came out at 5.43. In the case of `C[C@]12CC[C@H]3[C@@H](CCC4=CC(=O)CC[C@@]43C)[C@@H]1CC[C@@H]2C(=O)CO` it was 6.38; in that of `C[C@]12C[C@H](O)[C@H]3[C@@H](CCC4=CC(=O)CC[C@@]43C)[C@@H]1CC[C@@H]2C(=O)CO`, 5.34.

`CC(=O)[C@H]1CC[C@H]2[C@@H]3CCC4=CC(=O)CC[C@]4(C)[C@H]3CC[C@]12C`: the -Log Kdiss was 5.94. With `CC(=O)[C@@]1(O)CC[C@H]2[C@@H]3CC=C4C[C@@H](O)CC[C@]4(C)[C@H]3CC[C@@]21C` the figure was 5.36; with `C[C@]12CC[C@H](O)C[C@@H]1CC[C@@H]1[C@@H]2CC[C@]2(C)[C@@H](O)CC[C@@H]12`, 8.11. With `CC(=O)[C@@]1(O)CC[C@H]2[C@@H]3CCC4=CC(=O)CC[C@]4(C)[C@H]3CC[C@@]21C` the figure was 6; with `C[C@]12CC[C@@H](O)C[C@@H]1CC[C@@H]1[C@@H]2CC[C@]2(C)C(=O)CC[C@@H]12`, 6.15; with `C[C@]12CCC(=O)C=C1CC[C@@H]1[C@@H]2CC[C@@]2(C)[C@H]1CC[C@]2(O)C(=O)CO`, 6.2. In the case of `C[C@]12CCC(=O)C[C@@H]1CC[C@@H]1[C@@H]2CC[C@]2(C)[C@@H](O)CC[C@@H]12` it was 8.74.

On to `C[C@]12CC[C@@H]3c4ccc(O)cc4CCC3[C@@H]1CCC2=O` (single isomer, unassigned), for which the -Log Kdiss was 7.18. With `CC(=O)[C@H]1CC[C@H]2[C@@H]3CC=C4C[C@@H](O)CC[C@]4(C)[C@H]3CC[C@]12C` the figure was 6.15. With `C[C@]12CC[C@H](O)CC1=CCC1C2CC[C@]2(C)C(=O)CCC12` (some centres undefined) the figure was 6.82.
